# Experimental data taken from ChEMBL document CHEMBL5375947, “Discovery of Efficient Hypoxia-Targeted NO Donor Compounds to Alleviate Hypoxia Cardiac Disease” (J Med Chem, 2023).
# Activity calls are given as the source filed them. The calls are words filed in the database; no cut-off is given here.
# Assays:
# [1] = test system: H9c2; experiment: Induction of NO release in rat H9c2 cells at 10 uM under normoxia condition by griess reagent based assay; assay type: functional
# [2] = test system: H9c2; experiment: Induction of NO release in rat H9c2 cells at 10 uM under hypoxia condition by griess reagent based assay; assay type: functional
# [3] = test system: H9c2; experiment: Induction of NO release in rat H9c2 cells under hypoxia condition by griess reagent based assay; assay type: functional, cell-based; conditions: dose <= 15.0 µM
# [4] = test system: H9c2; experiment: Induction of NO release in rat H9c2 cells at 10 uM measured upto 12 hrs under hypoxia condition by griess reagent based assay; assay type: functional, cell-based
# [5] = test system: H9c2; experiment: Induction of NO release in rat H9c2 cells at 10 uM measured at 30 mins under hypoxia condition by griess reagent based assay; assay type: functional; conditions: 0.5 h
# [6] = test system: H9c2; experiment: Cytotoxicity against rat H9c2 cells assessed as reduction in cell viability at 0.01 to 10 uM under normoxia condition by CCK-8 assay; assay type: toxicity, cell-based; conditions: h9c2, 10 µM, dose 0.01-10 µM
# [7] = test system: H9c2; experiment: Recovery of myocardial cell viability in rat H9c2 cells at 0.01 to 10 uM under hypoxia condition by CCK-8 assay; assay type: functional, cell-based; conditions: dose 0.01-10 µM
# [8] = test system: H9c2; experiment: Recovery of myocardial cell viability in rat H9c2 cells assessed as increase in ATP level at 10 micromol/L measured per mg of protein under hypoxia condition by fluorescence based assay; assay type: functional; conditions: dose 10 µmol/L
# [9] = Toxicity in C57 mouse assessed as increase in body weight at 4 mg/kg, ip administered twice a day for 3 days; assay type: organism-based; conditions: in vivo, 72 h, time 3 day
# [10] = test system: H9c2; experiment: Anti-apoptotic activity in rat H9c2 cells assessed as late apoptotic cells by measuring red fluorescence intensity by annexin V-FITC/PI staining based confocal microscopic analysis; assay type: functional, cell-based
# [11] = Toxicity in C57 mouse assessed as reduction in heart weight at 12 mg/kg, ip administered twice a day for 3 days (reference value: 0.56g); assay type: organism-based; conditions: in vivo, 72 h, time 3 day
# [12] = test system: Mus musculus; experiment: Induction of NO release in C57 mouse at 4 mg/kg, ip administered twice a day for 3 days; assay type: functional; conditions: time 3 day
# [13] = test system: Mus musculus; experiment: Protection against hypoxia-induced myocardial injury C57 mouse model assessed as cellular arrangement disorder at 12 mg/kg, ip administered twice a day for 2 days by H and E staining based analysis; assay type: functional, organism-based; conditions: time 2.0 day
# [14] = test system: Mus musculus; experiment: Vasodilation activity against hypoxia-induced myocardial injury C57 mouse model assessed as vascular obstruction areas at 12 mg/kg, ip administered twice a day for 3 days; assay type: functional, organism-based; conditions: time 3.0 day
# [15] = Toxicity in C57 mouse assessed as ratio of heart weight to body weight at 4 mg/kg IG administered twice a day for 3 days; assay type: organism-based; conditions: in vivo, po, 72 h, time 3 day
# [16] = Stability of compound in PBS at pH 7.4 by HPLC analysis; assay type: physicochemical; conditions: buffer
# [17] = test system: H9c2; experiment: Induction of NO release in rat H9c2 cells at 5 to 10 uM under hypoxia condition by griess reagent based assay; assay type: functional, cell-based; conditions: dose 5-10 µM
# [18] = test system: H9c2; experiment: Induction of NO release in rat H9c2 cells at 10 uM under hypoxia condition by DAF-FM fluorescence probe based spectroscopic assay; assay type: functional, cell-based
# [19] = test system: H9c2; experiment: Recovery of myocardial cell viability in rat H9c2 cells under hypoxia condition by CCK-8 assay; assay type: functional, cell-based; conditions: dose 10.0 µM
# [20] = test system: H9c2; experiment: Recovery of myocardial cell viability in rat H9c2 cells at 0.01 to 1 uM under hypoxia condition by CCK-8 assay; assay type: functional, cell-based; conditions: dose 0.01-1 µM
# [21] = test system: H9c2; experiment: Downregulation of ACE expression in rat H9c2 cells at 5 to 10 uM by Western blot analysis; assay type: functional, cell-based; conditions: dose 5-10 µM
# [22] = test system: H9c2; experiment: Downregulation of ACE expression in rat H9c2 cells at 5 uM by Western blot analysis; assay type: functional, cell-based
# [23] = test system: H9c2; experiment: Upregulation of TSC2-p expression in rat H9c2 cells at 5 to 10 uM by Western blot analysis; assay type: functional, cell-based; conditions: dose 5-10 µM
# [24] = test system: H9c2; experiment: Downregulation of mTORC1 expression in rat H9c2 cells at 5 to 10 uM by Western blot analysis; assay type: functional, cell-based; conditions: dose 5-10 µM
# [25] = test system: H9c2; experiment: Downregulation of mTORC1 expression in rat H9c2 cells at 5 uM by Western blot analysis; assay type: functional, cell-based
# [26] = Toxicity in C57 mouse assessed as increase in cardiac swelling at 4 mg/kg, ip administered twice a day for 3 days; assay type: organism-based; conditions: in vivo, 72 h, time 3 day
# [27] = Toxicity in C57 mouse assessed as increase in cardiac swelling at 12 mg/kg, ip administered twice a day for 3 days; assay type: organism-based; conditions: in vivo, 72 h, time 3 day
# [28] = Toxicity in C57 mouse assessed as reduction in heart weight at low dose administered twice a day for 3 days (reference value: 0.56g); conditions: in vivo, 72 h, time 3 day
# [29] = Toxicity in C57 mouse assessed as reduction in heart weight at high dose administered twice a day for 3 days (reference value: 0.56g); conditions: in vivo, 72 h, time 3 day
# [30] = test system: Mus musculus; experiment: Induction of NO release in C57 mouse at 4 to 12 mg/kg, ip administered twice a day for 3 days; assay type: functional, organism-based; conditions: dose 4-12 mg/kg, time 3.0 day
# [31] = test system: Mus musculus; experiment: Protection against hypoxia-induced myocardial injury ip dosed C57 mouse model assessed as cellular arrangement disorder at low dose administered twice a day for 2 days by H and E staining based analysis; assay type: functional, organism-based; conditions: time 2.0 day
# [32] = test system: Mus musculus; experiment: Vasodilation activity against hypoxia-induced myocardial injury ip dosed C57 mouse model assessed as vascular obstruction areas low dose administered twice a day for 3 days; assay type: functional, organism-based; conditions: time 3.0 day
# [33] = test system: Mus musculus; experiment: Vasodilation activity against hypoxia-induced myocardial injury ip dosed C57 mouse model assessed as vascular obstruction areas high dose administered twice a day for 3 days; assay type: functional, organism-based; conditions: time 3.0 day
# [34] = test system: Mus musculus; experiment: Protection against hypoxia-induced myocardial injury ip dosed C57 mouse model assessed as collagen fiber proliferation at low dose administered twice a day for 3 days by masson staining based analysis; assay type: functional, organism-based; conditions: time 3.0 day
# [35] = test system: H9c2; experiment: Induction of NO release in rat H9c2 cells at 5 to 15 uM under hypoxia condition by griess reagent based assay; assay type: functional, cell-based; conditions: dose 5-15 µM
# [36] = test system: H9c2; experiment: Induction of NO release in rat H9c2 cells at 10 uM measured at 4 hrs under normoxia condition by griess reagent based assay; assay type: functional
# [37] = test system: H9c2; experiment: Induction of NO release in rat H9c2 cells at 10 uM measured at 4 hrs under hypoxia condition by griess reagent based assay; assay type: functional, cell-based
# [38] = test system: H9c2; experiment: Effect on ACE expression in rat H9c2 cells at 1 uM by Western blot analysis; assay type: functional, cell-based
# [39] = test system: H9c2; experiment: Effect on TSP1 expression in rat H9c2 cells at 10 uM by Western blot analysis; assay type: functional, cell-based
# [40] = test system: H9c2; experiment: Effect on TSC2-p expression in rat H9c2 cells by Western blot analysis; assay type: functional, cell-based; conditions: dose 0.01-1 µM
# [41] = test system: Mus musculus; experiment: Protection against hypoxia-induced myocardial injury ip dosed C57 mouse model assessed as cellular arrangement disorder at high dose administered twice a day for 2 days by H and E staining based analysis; assay type: functional, organism-based; conditions: time 2.0 day
# [42] = test system: Mus musculus; experiment: Protection against hypoxia-induced myocardial injury ip dosed C57 mouse model assessed as downregulation of ACE expression in heart at low dose administered twice a day for 3 days by immunohistochemistry analysis; assay type: functional, organism-based; conditions: time 3.0 day
# [43] = test system: Mus musculus; experiment: Protection against hypoxia-induced myocardial injury ip dosed C57 mouse model assessed as downregulation of ACE expression in heart at high dose administered twice a day for 3 days by immunohistochemistry analysis; assay type: functional, organism-based; conditions: time 3.0 day
# [44] = test system: Mus musculus; experiment: Protection against hypoxia-induced myocardial injury ip dosed C57 mouse model assessed as downregulation of mTORC1 expression in heart at low dose administered twice a day for 3 days by immunohistochemistry analysis; assay type: functional, organism-based; conditions: time 3.0 day
# [45] = test system: Mus musculus; experiment: Protection against hypoxia-induced myocardial injury ip dosed C57 mouse model assessed as downregulation of mTORC1 expression in heart at high dose administered twice a day for 3 days by immunohistochemistry analysis; assay type: functional, organism-based; conditions: time 3.0 day
# [46] = Toxicity in C57 mouse assessed as increase in body weight at 4 to 12 mg/kg IG administered twice a day for 3 days; assay type: organism-based; conditions: in vivo, po, 72 h, dose 4-12 mg/kg, time 3 day
# [47] = Toxicity in C57 mouse assessed as ratio of heart weight to body weight at 4 to 12 mg/kg IG administered twice a day for 3 days; assay type: organism-based; conditions: in vivo, po, 72 h, dose 4-12 mg/kg, time 3 day
# [48] = test system: Mus musculus; experiment: Protection against hypoxia-induced myocardial injury IG dosed C57 mouse model assessed as collagen fiber proliferation at low dose administered twice a day for 3 days by masson staining based analysis; assay type: functional, organism-based; conditions: time 3.0 day
# [49] = test system: Mus musculus; experiment: Protection against hypoxia-induced myocardial injury C57 mouse model assessed as reduction in collagen fiber proliferation at 12 mg/kg, IG administered twice a day for 3 days by masson staining based analysis; assay type: functional, organism-based; conditions: time 3.0 day
# [50] = test system: Mus musculus; experiment: Protection against hypoxia-induced myocardial injury C57 mouse model assessed as downregulation of ACE expression in heart at 12 mg/kg, IG administered twice a day for 3 days by immunohistochemistry analysis; assay type: functional, organism-based; conditions: time 3.0 day
structure (smiles),measurement,setting,value
CN(N=O)c1ccc(OC(=O)OCc2ccccc2[N+](=O)[O-])cc1,Activity,[1],<2%
same,Activity,[2],>20%
CN(N=O)c1ccc(OC(=O)OCc2ccc(Cl)cc2[N+](=O)[O-])cc1,Activity,[1],<2%
CN(N=O)c1ccc(OC(=O)OCc2ccc(Br)cc2[N+](=O)[O-])cc1,Activity,[1],<2%
CN(N=O)c1ccc(OC(=O)OCc2cc(Cl)ccc2[N+](=O)[O-])cc1,Activity,[1],<2%
CN(N=O)c1ccc(OC(=O)OCc2ccc([N+](=O)[O-])cc2Cl)cc1,Activity,[1],<2%
same,Activity,[2],>20%
O=[N+]([O-])O[C@H]1CO[C@H]2[C@@H]1OC[C@H]2O[N+](=O)[O-] [ISOSORBIDE DINITRATE],Activity,[1],36.89%
same,Activity,[2],27.41%
same,Activity,[3],Dose-Dependent Effect
same,Activity,[4],Active
same,Activity,[5],~30%
same,Activity,[6],Non-Toxic
same,Activity,[7],Active
same,Activity,[8],28.7 nmol
same,Activity,[9],Non-Toxic
same,Activity,[10],Active
same,Activity,[11],0.51 g
same,Activity,[12],54%
same,Activity,[13],Active
same,Activity,[14],inactive
same,Ratio,[15],0.59
CN(N=O)c1ccc(OC(=O)OCc2ccc([N+](=O)[O-])cc2)cc1,Stability,[16],0.41%
same,Activity,[1],<2%
same,Activity,[2],24.38%
same,Activity,[17],Active
same,Activity,[18],Active
same,Activity,[6],Non-Toxic
same,Activity,[7],Active
same,Activity,[19],Dose-Dependent Effect
same,Activity,[20],Active
same,Activity,[8],37.5 nmol
same,Activity,[9],Non-Toxic
same,Activity,[10],Active
same,Activity,[21],Active
same,Activity,[22],inactive
same,Activity,[23],Active
same,Activity,[24],Active
same,Activity,[25],inactive
same,Activity,[26],Non-Toxic
same,Activity,[27],Toxic
same,Activity,[28],0.57 g
same,Activity,[29],0.48 g
same,Activity,[30],Active
same,Activity,[31],Active
same,Activity,[32],Active
same,Activity,[33],Active
same,Activity,[34],inactive
Cc1ccc(COC(=O)Oc2ccc(N(C)N=O)cc2)c([N+](=O)[O-])c1,Activity,[1],<2%
Cc1cc([N+](=O)[O-])ccc1COC(=O)Oc1ccc(N(C)N=O)cc1,Activity,[1],<2%
same,Activity,[2],43.21%
same,Activity,[17],Active
same,Activity,[35],Active
same,Activity,[18],Active
same,Activity,[4],Active
same,Activity,[36],0%
same,Activity,[37],Active
same,Activity,[5],28%
same,Activity,[6],Non-Toxic
same,Activity,[7],Active
same,Activity,[8],44 nmol
same,Activity,[9],Non-Toxic
same,Activity,[10],Active
same,Activity,[21],Active
same,Activity,[23],Active
same,Activity,[38],Active
same,Activity,[39],Active
same,Activity,[40],Dose-Dependent Effect
same,Activity,[27],Toxic
same,Activity,[28],0.52 g
same,Activity,[29],0.48 g
same,Activity,[30],Active
same,Activity,[31],Active
same,Activity,[41],Active
same,Activity,[32],Active
same,Activity,[33],Active
same,Activity,[34],Active
same,Activity,[42],Active
same,Activity,[43],Active
same,Activity,[44],Active
same,Activity,[45],Active
same,Activity,[46],Non-Toxic
same,Ratio,[47],0.56
same,Activity,[48],Active
same,Activity,[49],Active
same,Activity,[50],Active
Cc1ccc([N+](=O)[O-])c(COC(=O)Oc2ccc(N(C)N=O)cc2)c1,Activity,[1],<2%
